Test results from PubChem BioAssay (NCI).
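Exposure lasted 48 hours, with cells grown in 96-well plates and compounds tested at five concentrations. TGI denotes the concentration required for complete inhibition of growth.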

Columns and labels:
Test in all cases: growth of human tumour cells (NCI), 48 h
SK-MEL-5 melanoma = tested on: SK-MEL-5 melanoma
SF-268 CNS = tested on: SF-268 CNS
SF-539 CNS = tested on: SF-539 CNS
NCI/ADR-RES ovarian = tested on: NCI/ADR-RES ovarian
UACC-62 melanoma = tested on: UACC-62 melanoma
SW-620 colon = tested on: SW-620 colon
MALME-3M melanoma = tested on: MALME-3M melanoma
RPMI-8226 leukemia = tested on: RPMI-8226 leukemia
SF-295 CNS = tested on: SF-295 CNS
SN12C renal = tested on: SN12C renal

| Structure (SMILES) | TGI (SK-MEL-5 melanoma) [µM] | TGI (SF-268 CNS) [µM] | TGI (SF-539 CNS) [µM] | TGI (NCI/ADR-RES ovarian) [µM] | TGI (UACC-62 melanoma) [µM] | TGI (SW-620 colon) [µM] | TGI (MALME-3M melanoma) [µM] | TGI (RPMI-8226 leukemia) [µM] | TGI (SF-295 CNS) [µM] | TGI (SN12C renal) [µM] |
| --- | --- | --- | --- | --- | --- | --- | --- | --- | --- | --- |
| Cn1ccnc1Sc1ccc(C=Nc2ccc3nc(SCC(=O)NC4CCCCC4)sc3c2)cc1[N+](=O)[O-] | > 100 | > 100 | 22.3 | > 100 | > 100 | > 100 | > 100 | > 100 | 44.4 | > 100 |
| N#CC(=N)c1ncn(-c2ccccc2N)c1N | > 100 | > 100 | > 100 | > 100 | > 100 | > 100 | > 100 | > 100 | > 100 | > 100 |
| COc1c(O)c(O)cc2c1-c1ccc(OC)c(=O)cc1C(NC(C)=O)CC2 (stereo not given) | 11.3 | > 95.2 | 10.4 | > 69.8 | 24.8 | 63.3 | > 100 | 54.9 | 20.5 | 42.5 |
| CC1=C[C@@H](C)C[C@]2(C)CC[C@H](O2)[C@]23CC[C@](C(=O)O)(C[C@H](O2)[C@@H]2O[C@@](C)(CC2=O)[C@@H](O)[C@H]2CC[C@@]4(CCC[C@@H](O4)[C@H](C)C(=O)O[C@H]4C[C@H]([C@]5(O)OCC[C@H](C)[C@@H]5O)O[C@H]4C=C1)O2)O3 | > 10 | > 10 | > 10 | > 10 | > 10 | > 10 | > 10 | > 10 | > 10 | > 10 |
